Laboratory results reported in ChEMBL document CHEMBL1201862, “PubChem BioAssay data set” (2004).
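Grown in 96-well plates, cells were treated for 48 hours with each compound at five concentrations. Insufficient inhibition: endpoint recorded as highest concentration tested. GI50: concentration for 50% inhibition of growth.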 Activity calls are given as the source filed them. No stated cut-off is given here; in the data, active = GI50 up to about 1.1 µM and inactive = higher.

How the values were obtained:
Experiment in all cases: NCI anticancer screen, dose series, 48 h
ACHN = test system: ACHN
A498 = test system: A498
SNB-19 = test system: SNB-19
A549 = test system: A549
NCI-H460 = test system: NCI-H460
786-0 = test system: 786-0
NCI-H23 = test system: NCI-H23
RPMI-8226 = test system: RPMI-8226
NCI-H522 = test system: NCI-H522
HL-60 = test system: HL-60
M14 = test system: M14
CCRF-CEM = test system: CCRF-CEM
UACC-257 = test system: UACC-257
SK-MEL-2 = test system: SK-MEL-2

Row | SMILES | GI50 (ACHN) | GI50 (A498) | GI50 (SNB-19) | GI50 (A549) | GI50 (NCI-H460) | GI50 (786-0) | GI50 (NCI-H23) | GI50 (RPMI-8226) | GI50 (NCI-H522) | GI50 (HL-60) | GI50 (M14) | GI50 (CCRF-CEM) | GI50 (UACC-257) | GI50 (SK-MEL-2)
1 | O=c1[nH]c(=O)n(C2OC(COP(=O)(O)OP(=O)(O)OC3OC(CO)C(O)C(O)C3O)C(O)C2O)cc1F (configuration not stated) | 0.0217 µM (active) | 0.239 µM (active) | 0.156 µM (active) | 0.0149 µM (active) | < 0.014 µM (active) | 0.0526 µM (active) | 0.147 µM (active) | < 0.01 µM (active) | 0.327 µM (active) | 0.065 µM (active) | 0.234 µM (active) | 0.0929 µM (active) | 0.615 µM (active) | 0.486 µM (active)
2 | O=C1N(c2ccc(Cl)cc2)C(=O)C2(SC=NN2Cc2ccccc2)N1c1ccc(Cl)cc1 (configuration not stated) | > 100 µM (inactive) | > 100 µM (inactive) | > 100 µM (inactive) | 96.4 µM (inactive) | > 100 µM (inactive) | > 100 µM (inactive) | 8.24 µM (inactive) | 8.34 µM (inactive) | 7.76 µM (inactive) | 7 µM (inactive) | > 100 µM (inactive) | 7.57 µM (inactive) | > 100 µM (inactive) | –
3 | CC1=C2C(=CC(C)(C)C2O)C(=O)C(C)(O)C12CC2 (configuration not stated) | 0.00479 µM (active) | 0.0279 µM (active) | 0.019 µM (active) | 0.0135 µM (active) | 0.0018 µM (active) | 0.00759 µM (active) | 0.00681 µM (active) | – | 0.00469 µM (active) | 0.00345 µM (active) | 0.0158 µM (active) | 0.00531 µM (active) | 0.014 µM (active) | 0.0121 µM (active)
4 | O=C1C(=O)N(c2nccs2)C(=O)C(=O)C1c1nc2ccccc2s1 | > 100 µM (inactive) | – | > 100 µM (inactive) | > 100 µM (inactive) | > 100 µM (inactive) | > 100 µM (inactive) | > 100 µM (inactive) | > 100 µM (inactive) | – | – | > 100 µM (inactive) | – | > 100 µM (inactive) | > 100 µM (inactive)
5 | CN(C)C(=S)Nc1nnc(NC23CC4CC(CC(C4)C2)C3)s1.[O-][Cl+3]([O-])([O-])O | 21.8 µM (inactive) | 15 µM (inactive) | 18.3 µM (inactive) | 12.4 µM (inactive) | 12.6 µM (inactive) | 16.6 µM (inactive) | 10 µM (inactive) | 16 µM (inactive) | 16.1 µM (inactive) | 7.57 µM (inactive) | 16 µM (inactive) | 15 µM (inactive) | 14.5 µM (inactive) | 18.5 µM (inactive)
6 | C/C(=N\NC(=S)NC(CCC(=O)O)C(=O)O)c1ccccn1 (configuration not stated) | > 100 µM (inactive) | > 100 µM (inactive) | > 100 µM (inactive) | > 100 µM (inactive) | > 100 µM (inactive) | > 100 µM (inactive) | > 100 µM (inactive) | > 100 µM (inactive) | > 100 µM (inactive) | > 100 µM (inactive) | > 100 µM (inactive) | > 100 µM (inactive) | > 100 µM (inactive) | > 100 µM (inactive)
7 | O=C(CSc1nnc(-c2ccc(/N=C\c3ccc(Cl)cc3)cc2)o1)Nc1ccc([N+](=O)[O-])cc1 | 11.9 µM (inactive) | – | 16.6 µM (inactive) | 39.9 µM (inactive) | 36.4 µM (inactive) | 19.8 µM (inactive) | 19.4 µM (inactive) | 2.45 µM (inactive) | 20.9 µM (inactive) | 26.4 µM (inactive) | 19.4 µM (inactive) | 18.5 µM (inactive) | 21.5 µM (inactive) | 25.4 µM (inactive)
8 | CSc1nc2c(nc(N)n2C2OC(CO)C(O)C(O)C2O)c(=O)[nH]1 (configuration not stated) | > 100 µM (inactive) | > 100 µM (inactive) | > 100 µM (inactive) | > 100 µM (inactive) | > 100 µM (inactive) | > 100 µM (inactive) | > 100 µM (inactive) | – | > 100 µM (inactive) | > 100 µM (inactive) | > 100 µM (inactive) | > 100 µM (inactive) | > 100 µM (inactive) | –
9 | CC(C)C1=CC23CCC4C(C)(C(=O)O)CCCC4(C)C2CC1C1C(=O)N(c2ccccc2)C(=O)C13 (configuration not stated) | 28.1 µM (inactive) | – | 46.9 µM (inactive) | 31.6 µM (inactive) | 38.9 µM (inactive) | 55.2 µM (inactive) | > 100 µM (inactive) | > 100 µM (inactive) | 49.1 µM (inactive) | 95.9 µM (inactive) | 40.5 µM (inactive) | 56.6 µM (inactive) | 26.1 µM (inactive) | 20.1 µM (inactive)
10 | Cc1cc(Cl)ccc1NC(=O)C(=O)C(C(=O)c1ccc2ccccc2c1)C1OC(=O)c2ccccc21 (configuration not stated) | 23.2 µM (inactive) | 7.48 µM (inactive) | 3.87 µM (inactive) | 21.3 µM (inactive) | 6.93 µM (inactive) | 8.91 µM (inactive) | 6.73 µM (inactive) | 3.1 µM (inactive) | 7.06 µM (inactive) | – | 16 µM (inactive) | 1.11 µM (active) | 16.1 µM (inactive) | 12.8 µM (inactive)
11 | COC1=CC(=O)C(Br)=CC1=O | – | – | 17.8 µM (inactive) | > 100 µM (inactive) | > 100 µM (inactive) | 18.6 µM (inactive) | 18.9 µM (inactive) | 21.6 µM (inactive) | 8.69 µM (inactive) | 5.32 µM (inactive) | 19 µM (inactive) | 2.54 µM (inactive) | 17.3 µM (inactive) | 20.5 µM (inactive)
12 | CCc1c(C#N)c(=O)[nH]c(=O)n1CCN1CCN(C(=O)NCCCCCCNC(=O)N2CCN(CCn3c(CC)c(C#N)c(=O)[nH]c3=O)CC2)CC1 | > 100 µM (inactive) | > 100 µM (inactive) | > 100 µM (inactive) | > 100 µM (inactive) | > 100 µM (inactive) | > 100 µM (inactive) | – | > 100 µM (inactive) | – | > 100 µM (inactive) | > 100 µM (inactive) | > 100 µM (inactive) | > 100 µM (inactive) | –
13 | COC(=O)/C(=N\NC(=O)c1ccccc1O)C(C#N)c1ccc(Cl)cc1 (configuration not stated) | 5.85 µM (inactive) | > 100 µM (inactive) | – | 3.85 µM (inactive) | 39 µM (inactive) | 18 µM (inactive) | 24.4 µM (inactive) | – | 25.2 µM (inactive) | 24.9 µM (inactive) | 40.6 µM (inactive) | 36.8 µM (inactive) | 31.5 µM (inactive) | 21.7 µM (inactive)
14 | O=C(Nc1ccccc1)OCc1nc2c([nH]1)C(=O)C=CC2=O | 12.6 µM (inactive) | 16.2 µM (inactive) | 13.8 µM (inactive) | 16.4 µM (inactive) | 19.8 µM (inactive) | 18.3 µM (inactive) | 19.4 µM (inactive) | 18.7 µM (inactive) | – | 3.29 µM (inactive) | 16 µM (inactive) | 3.34 µM (inactive) | 3.42 µM (inactive) | 19.8 µM (inactive)
15 | COc1cc(/C=C2\NC(=O)C3Cc4c(OC)c(C)c(OC)c(OC)c4C2N3C)c(OC)c(C)c1OC (configuration not stated) | > 100 µM (inactive) | > 100 µM (inactive) | > 100 µM (inactive) | > 100 µM (inactive) | – | > 100 µM (inactive) | > 100 µM (inactive) | – | 99.5 µM (inactive) | > 100 µM (inactive) | > 100 µM (inactive) | > 100 µM (inactive) | > 100 µM (inactive) | –
16 | CCC12C[N+]3([O-])CCc4c([nH]c5ccccc45)C(C(=O)OC)(c4cc5c(cc4OC)N(C)C4C(O)(C(=O)OC)C(OC(C)=O)C6(CC)C=CCN7CCC54C76)CC(C3)C1O2 (configuration not stated) | 10.5 µM (inactive) | 1.55 µM (inactive) | 0.597 µM (active) | 0.826 µM (active) | 0.424 µM (active) | 0.461 µM (active) | 0.465 µM (active) | 0.331 µM (active) | 0.063 µM (active) | – | 2.17 µM (inactive) | 0.401 µM (active) | 7.01 µM (inactive) | 0.234 µM (active)
17 | Nc1c(C(=O)Nc2ccccc2O)[n+]([O-])c2ccccc2[n+]1[O-] | 87.5 µM (inactive) | > 100 µM (inactive) | > 100 µM (inactive) | 36.1 µM (inactive) | 27 µM (inactive) | > 100 µM (inactive) | 23.9 µM (inactive) | 22.3 µM (inactive) | 43.4 µM (inactive) | 25.8 µM (inactive) | > 100 µM (inactive) | – | 18.8 µM (inactive) | 40.2 µM (inactive)
18 | O=C(CSc1nnc(-c2ccc(/N=C\c3ccc(Cl)cc3)cc2)o1)Nc1cccc([N+](=O)[O-])c1 | > 100 µM (inactive) | – | > 100 µM (inactive) | > 100 µM (inactive) | > 100 µM (inactive) | > 100 µM (inactive) | > 100 µM (inactive) | > 100 µM (inactive) | 27.5 µM (inactive) | > 100 µM (inactive) | > 100 µM (inactive) | > 100 µM (inactive) | > 100 µM (inactive) | > 100 µM (inactive)
19 | CC1(Cc2ccccc2)NC(=S)NC1=O (configuration not stated) | > 100 µM (inactive) | – | > 100 µM (inactive) | > 100 µM (inactive) | > 100 µM (inactive) | > 100 µM (inactive) | > 100 µM (inactive) | – | > 100 µM (inactive) | > 100 µM (inactive) | > 100 µM (inactive) | – | > 100 µM (inactive) | > 100 µM (inactive)
20 | O=C(c1ccccc1)C(c1ccccc1)C1(O)C(=O)Nc2ccc(Br)cc21 (configuration not stated) | > 100 µM (inactive) | > 100 µM (inactive) | > 100 µM (inactive) | > 100 µM (inactive) | > 100 µM (inactive) | 71.9 µM (inactive) | 50.4 µM (inactive) | 17.9 µM (inactive) | 20.9 µM (inactive) | 16.6 µM (inactive) | 30.5 µM (inactive) | 17.7 µM (inactive) | 22.3 µM (inactive) | 61.1 µM (inactive)
